# Laboratory results from patent publication EP4640207A1, “AQUEOUS COMPOSITION AND EXTERNAL PREPARATION FOR SKIN” (Resonac Corporation, priority 2022, dated 2024).
# Where two headings read alike, the source gives them in different places.
# How the values were obtained:
# claudin 1 (CLDN1) gene = experiment: Expression of TJ-related gene CLDN1 in UVB-irradiated NHEK cells, quantitative real-time PCR; assay type: cell-based, human; details: for fold induction at 10 µM: Homo sapiens, light or radiation study, read-out: Expression level of gene (relative value) CLDN1 gene
# Experimental: (§1) • (Confirmation of activity of aqueous composition with δ-TPG and HD: effect of promoting expression of TJ-related gene) • Normal human epidermal keratinocytes (NHEK, manufactured by KURABO INDUSTRIES LTD.) were subjected to the same operation as in Experimental Example 2 to obtain evaluation cells.
# (§2) Total RNA was extracted from the evaluation cells thus obtained, and cDNA was synthesized. Subsequently, quantitative real-time PCR was carried out using the above-described cDNA as a template, and the expression levels of the claudin 1 (CLDN1) gene and occludin (OCL) gene in the NHEK cells were quantified. In addition, the expression level of GAPDH was quantified as an internal standard gene. The expression levels of the CLDN1 gene and OCL gene were standardized with reference to the expression level of the GAPDH gene in the NHEK cells. As a primer for amplifying the GAPDH gene, a primer GAPDH (ID: HA067812) manufactured by Takara Bio Inc. was used. As a primer for amplifying the CLDN1 gene, a primer CLDN1 (ID: HA103348) manufactured by Takara Bio Inc. was used. As a primer for amplifying the OCL gene, a primer OCL (ID: HA036753) manufactured by Takara Bio Inc. was used.
# (§3) The same operation as described above was performed using, instead of δ-TPG, α-TPG, TPA, δ-TP, or α-TP to obtain evaluation cells. The expression levels of the CLDN1 gene and OCL gene were measured for these evaluation cells by the same operation as described above.
# (§4) The expression level of each gene was determined as a relative value when the expression level of each gene in reference cells was set to 1. The reference cells were prepared by the same operation as the reference cells in Experimental Example 2.
# (§5) The expression levels of the CLDN1 gene and OCL gene in comparative cells were determined by the same method as described above. The comparative cells were prepared by the same operation as the comparative cells in Experimental Example 2.
# occludin (OCL) gene = experiment: Expression of TJ-related gene OCL in UVB-irradiated NHEK cells, quantitative real-time PCR; assay type: cell-based, human; details: for fold induction at 10 µM: Homo sapiens, light or radiation study, read-out: Expression level of gene (relative value) OCL gene
# Experimental: as §1, §2, §3, §4, §5
# [1] = tested on: skin model (model "EP1-200"); experiment: TJ-forming ability evaluation test: transepidermal water loss (TEWL) of skin model; assay type: cell-based; details: cultured 24 hours
# Experimental: A skin model (model "EP1-200", manufactured by KURABO INDUSTRIES LTD.) was pre-cultured for 1 hour under the conditions of 37°C and 5% CO2. Subsequently, δ-TPG dissolved in a 0.5% by mass HD aqueous solution at a concentration of 0.2% by mass was added to the surface of the skin model, and the skin model was further cultured for 24 hours. Subsequently, δ-TPG was removed, the sample was washed three times with a phosphate buffer solution, and the transepidermal water loss (TEWL) was measured. A cyclone water vaporizer (manufactured by ASCH JAPAN Co.,Ltd.) was used for measuring the TEWL.
# TEWL was measured by performing the same operation as described above using TPA instead of δ-TPG.
# For comparison, a 0.5% by mass HD aqueous solution not containing δ-TPG instead of δ-TPG dissolved in a 0.5% by mass HD aqueous solution was used, and the same operation as described above was performed to measure the TEWL.
# The same operation as described above was performed using δ-TP dissolved in 1% by mass of HD at a concentration of 0.2% by mass, instead of δ-TPG dissolved in 0.5% by mass of HD, and the TEWL was measured.
# It was confirmed that TEWL was suppressed in the group in which δ-TPG was added. […]
# TRPV4 gene = experiment: cells; assay type: cell-based, human; details: for fold induction at 10 µM: Homo sapiens, NHEK, light or radiation study, read-out: Expression level of TRPV4 gene (relative value); for Expression level of TRPV4 gene (relative value): nhek cells, 10 µM
# Experimental: • (Confirmation of activity of aqueous composition containing δ-TPG and HD: expression of TRPV4 gene) • Normal human epidermal keratinocytes (NHEK, manufactured by KURABO INDUSTRIES LTD.) were seeded in a plastic petri dish at a seeding density of 10,000 cells/cm^2, and cultured for 24 hours in a normal human epidermal keratinocyte serum-free culture medium (manufactured by KURABO INDUSTRIES LTD.).
# 8.94 g of water, 1.0 g of HD, and 0.06 g of δ-TPG were mixed and stirred to obtain an aqueous composition. The above-described aqueous composition was added to a culture solution in which the above-described NHEK cells had been cultured for 24 hours, such that the final concentration of δ-TPG was 10 µM.
# After adding the δ-TPG, the above-described culture solution was further cultured for 48 hours. Thereafter, the culture solution was irradiated with UVB at 60 mJ/cm^2 using a UVB irradiation device of UVP, LLC. Thereafter, a fresh normal human epidermal keratinocyte growth medium was added to the above-described culture solution, and the culture was further carried out for 24 hours. In this manner, evaluation cells were obtained.
# Total RNA was extracted from the evaluation cells obtained above, and cDNA was synthesized. Subsequently, quantitative real-time PCR was carried out using the above-described cDNA as a template, and the expression level of the TRPV4 gene in the NHEK cells was quantified. The expression level of glyceraldehyde 3-phosphate dehydrogenase (GAPDH) was quantified as an internal standard gene. […] The expression level of the TRPV4 gene was standardized with reference to the expression level of the GAPDH gene in the NHEK cells. As a primer for amplifying the GAPDH gene, a primer GAPDH (ID: HA067812) manufactured by Takara Bio Inc. was used. As a primer for amplifying the TRPV4 gene, a primer TRPV4 (ID: HA186338) manufactured by Takara Bio Inc. was used.
# The same operation as described above was carried out using, instead of δ-TPG, D-α-tocopheryl glucoside (hereinafter, may be abbreviated as "α-TPG"), tocopherol acetate (FUJIFILM Wako Pure Chemical Corporation; hereinafter, may be abbreviated as "TPA"), δ-tocopherol (Sigma-Aldrich Co., LLC; hereinafter, may be abbreviated as "δ-TP"), or α-tocopherol (SEIKO-EPSON CORPORATION; hereinafter, may be abbreviated as "α-TP"), thereby obtaining evaluation cells. The expression level of the TRPV4 gene was measured for these evaluation cells by the same operation as described above.
# The expression level of the TRPV4 gene was determined as a relative value when the expression level of the TRPV4 gene in reference cells was set to 1. The reference cells were prepared by culturing the NHEK cells without adding a test compound to the cell culture solution and without irradiating the cells with UVB. HD was added to the cell culture solution of the reference cells so that the HD concentration in the cell culture solution was the same as that in the culture solution when δ-TPG was added and cultured. The culture conditions for the NHEK cells were the same as those when δ-TPG was added, except that δ-TPG was not added and UVB irradiation was not carried out.
# Comparative cells were prepared by culturing the NHEK cells by not adding the test compound to the cell culture solution and irradiating the cells with UVB. […] The expression level of the TRPV4 gene in the comparative cells was determined by the same method as described above.
# [2] = Confirmation of solubility of tocopheryl glucoside (visual observation of vials); details: aqueous composition not containing HD
# Experimental: The solubility of the D-δ-tocopheryl glucoside (hereinafter, may be abbreviated as "δ-TPG") was examined.
# 9.9 g of each of the mixtures was placed in individual vials, 0.01 g of solid δ-TPG was added to each vial, and the mixture was stirred at room temperature. After stirring for 1 hour, the state of each vial was observed.
# [3] = NHEK cells, final concentration 10 µM, UVB 60 mJ/cm^2 performed, relative to reference cells (HD, no UVB) = 1, standardized to GAPDH
# [4] = 0.2% by mass in 0.5% by mass HD aqueous solution on skin model surface
Compound,fold induction at 10 µM (claudin 1 (CLDN1) gene; [3]),fold induction at 10 µM (occludin (OCL) gene; [3]),"TEWL [1, 4]",fold induction at 10 µM (TRPV4 gene),Expression level of TRPV4 gene (relative value) (TRPV4 gene),other results
"CC(=O)Oc1c(C)c(C)c2c(c1C)CCC(C)(CCCC(C)CCCC(C)CCCC(C)C)O2 (stereo not shown) [TPA/HD, tocopherol acetate]",0.77,1.12,12.4 ± 0.8 g/(h·m^2),0.29,,
"Cc1c(C)c2c(c(C)c1O)CCC(C)(CCCC(C)CCCC(C)CCCC(C)C)O2 (stereo not drawn) [α-TP/HD, α-tocopherol]",,,,0.43,,fold induction at 10 µM (claudin 1 (CLDN1) gene; NHEK): 1; fold induction at 10 µM (occludin (OCL) gene; NHEK): 2.48
"Cc1cc(OC2OC(CO)C(O)C(O)C2O)cc2c1OC(C)(CCCC(C)CCCC(C)CCCC(C)C)CC2 [δ-TPG, D-δ-tocopheryl glucoside]",1.28,3.45,7.9 ± 1.7 g/(h·m^2),0.83,,
D-α-tocopheryl glucoside [α-TPG/HD],,,,,0.77,Expression level of gene (relative value) CLDN1 gene (claudin 1 (CLDN1) gene; [3]): 1.24; Expression level of gene (relative value) OCL gene (occludin (OCL) gene; [3]): 3.24
tocopheryl glucoside,,,,,,solubility of tocopheryl glucoside [2]: not sufficiently dissolved
δ-tocopherol [δ-TP/HD],,,,,0.54,"Expression level of gene (relative value) CLDN1 gene (claudin 1 (CLDN1) gene; nhek cells, 10 µM): 1.00; Expression level of gene (relative value) OCL gene (occludin (OCL) gene; nhek cells, 10 µM): 1.91; TEWL ([1]; 0.2% by mass in 1% by mass of HD on skin model surface): 8.2 ± 1.2 g/(h·m^2)"
